The values below come from publication PMC5565192, “Larrea tridentata: A novel source for anti-parasitic agents active against Entamoeba histolytica, Giardia lamblia and Naegleria fowleri” (PLoS Neglected Tropical Diseases, 2017).

Experiment [1] has as its system E. histolytica HM1: IMSS trophozoites. As to the kind of experiment: Parasite assay, CellTiter-Glo EC50 dose response, E. histolytica trophozoites. In kind it is cell-based, Entamoeba histolytica. The conditions noted are these: for EC50: 48 h. On the procedure:
(§1) Trophozoites of E. histolytica HM1: IMSS and G. lamblia WB strains were axenically maintained in TYI-S-33 medium supplemented with penicillin (100 U/ml), streptomycin (100 μg/ml). Trophozoites of N. fowleri strain KUL were axenically cultured in Nelson’s medium supplemented with 10% FBS at 37°C [45]. All experiments were performed using trophozoites harvested during the logarithmic phase of growth. Four solvent partitioned fractions of an aqueous methanolic extract of L. tridentata and compounds 1–9 were screened for activity against E. histolytica, G. lamblia, and N. fowleri. For primary screening, the positive control for E. histolytica and G. lamblia was 5 μg/mL of metronidazole (Sigma-Aldrich) and 46 μg/mL of amphotericin B for N. fowleri (Sigma-Aldrich). Test samples were diluted to 10 mg/mL of extracts, HPLC fractions, and pure compounds in DMSO. Finally, 0.5 μL of diluted sample was transferred to white, solid bottom tissue culture 96-well plates (E&K Scientific) followed by addition of 99.5 μL trophozoites (5,000 E. histolytica and G. lamblia, and 10,000 N. fowleri) in TYI-S-33 medium or Nelson’s medium. The final concentration for test compounds was 50 μg/mL and 0.5% DMSO, which was the negative control and compound vehicle that we have shown has no effect the growth rate of trophozoites. Assay plates were incubated for 48 h at 37°C. E. histolytica and G. lamblia plates were kept in the GasPak EZ Anaerobe Gas Generating Pouch System (VWR) to maintain anaerobic condition throughout the incubation period. Screening was performed in duplicate using the CellTiter-Glo assay (Promega) and luminescence was measured using an EnVision plate reader (PerkinElmer).
(§2) The antiparasitic activity of 1–6 and 9 were confirmed by EC50 dose response experiments, using the CellTiter-Glo assay, conducted in triplicate over a concentration range from 5-to-700 μM against trophozoites (Table 3). Miltefosine and metronidazole, current drugs for the treatment of PAM and amebiasis and giardiasis were also tested in triplicate as positive controls for EC50 determination (Table 3). Dose response curves including standard deviation (SD) calculation were processed using GraphPad Prism software 5.0. Percent inhibition relative to maximum and minimum reference signal controls was calculated using the formula: % Inhibition = [(mean of Maximum Signal Reference Control—Experimental Value)/(mean of Maximum Signal Reference Control—mean of Minimum Signal Reference Control)] × 100.
(ATP-based viability assays read luminescence as a measure of living cells.)

Experiment [2] has as its system G. lamblia WB trophozoites. As to the kind of experiment: Parasite assay, CellTiter-Glo EC50 dose response, G. lamblia trophozoites. The conditions noted are these: for loss of activity compared to 3, G. lamblia: SAR comparison with compound 3. It counts as cell-based, Giardia lamblia. The protocol:
as §1, §2

In experiment [3] the test system is N. fowleri strain KUL trophozoites. As to the kind of experiment: Parasite assay, CellTiter-Glo EC50 dose response, N. fowleri trophozoites. In kind it is cell-based, Naegleria fowleri. On the procedure:
as §1, §2

Experiment [4] relates to E. histolytica, G. lamblia, and N. fowleri trophozoites. As to the kind of experiment: Antiparasitic activity, statements for all three pathogens together (CellTiter-Glo). In kind it is cell-based. The conditions noted are these: for antiparasitic activity against the three pathogens (in words): E. histolytica, N. fowleri trophozoites. The protocol:
as §1, §2

In experiment [5] the test system is HUVEC-TERT2 cell line. As to the kind of experiment: HUVEC cell cytotoxicity (CellTiter-Glo, 48 h). It counts as cell-based, human. To be noted: for fold less toxic to human cells compared to N. fowleri: HUVEC EC50 versus N. fowleri EC50, P<0.0001; for EC50: Homo sapiens, HUVEC, 48 h, CellTiter-Glo, read-out: EC50 inhibition of HUVEC cell viability. On the procedure:
The HUVEC-TERT2 cell line was purchased from Evercyte GmbH (Vienna, Austria) and cultured and maintained in endothelial cell basal medium (Lonza) as described previously. Briefly, cells were seeded into a white 384-well solid bottom plate (Nunc, ThermoFisher) at a density of 1000 cells/well in 39 μL of media using a Janus liquid handler (PerkinElmer). Serial dilutions using 1 μL of compound 1 and 2 at varying concentrations were dispensed into each well in triplicate. After 48 h incubation, 40 μL of CellTiter-Glo reagent (Promega) was added into each well. The contents were mixed for 2 min on a microplate shaker to induce cell lysis and further incubated at room temperature for 10 min to stabilize the luminescent signal. Luminescence was measured with an EnVision plate reader (PerkinElmer) and %inhibition calculations were performed using the following formula for single-point normalization: %Inhibition = (1-Raw Sample Value/Mean of DMSO Signal Reference Value) × 100. Dose response curves including EC50 calculations were processed using GraphPad Prism software.

Experiment [6] relates to N. fowleri cysteine protease. As to the kind of experiment: Cysteine protease activity assay in N. fowleri crude lysate (Z-Phe-Arg-AMC). In kind it is biochemical, Naegleria fowleri. The conditions noted are these: at 1.875 μM, total crude lysate of N. fowleri. On the procedure: To prepare the cell lysate, N. fowleri trophozoites were removed from the culture flask surface by incubating in an ice bath for 10 min, centrifuged at 300 g for 10 min, and washed twice with PBS (pH 7.2). The cells were disrupted by four cycles of freeze thawing in PBS [51]. Protein concentration was quantified by the method of Bradford (Bio-Rad). The activity of the cysteine protease present in the crude extract after incubating in presence and absence of different concentrations of compounds 1 and 2 was assayed by the liberation of the fluorescent leaving group, 7-amino-4-methyl coumarin (AMC), from the peptide substrate Z–Phe–Arg–AMC (40 μM) (where Z is benzyloxycarbonyl, R&D Systems). The assay was performed at 25°C in an automated microtiter plate spectrofluorometer (EnVision, PerkinElmer) with excitation wavelength at 355 nm and emission wavelength at 460 nm. Enzyme samples were added to the reactivation buffer (10 mM Tris, 5 mM EDTA, 50 mM NaCl, pH 7.4, 10 mM DTT), and preincubated for 20 min at 37°C prior to the hydrolysis of substrate. The rate of substrate hydrolysis at ambient temperature was determined from the rate of increase of fluorescence, monitored on a continuously recording spectrofluorometer and measured as RFU/min/μg protein.

Where [7] appears, read: Entamoeba histolytica, read-out: E. histolytica EC50.
[8] abbreviates: Giardia duodenalis, 48 h, read-out: G. lamblia EC50.
Setting [9] is: Naegleria fowleri, 48 h, read-out: N. fowleri EC50.
[10] abbreviates: Entamoeba histolytica, trophozoites, minimum n = 3, read-out: E. histolytica EC50.
[11] abbreviates: Entamoeba histolytica, trophozoites, minimum n = 3, read-out: E. histolytica pEC50 ± SE (converted).
[12] abbreviates: Giardia duodenalis, trophozoites, 48 h, minimum n = 3, read-out: G. lamblia EC50.
Where [13] appears, read: Giardia duodenalis, trophozoites, 48 h, minimum n = 3, read-out: G. lamblia pEC50 ± SE (converted).
Where [14] appears, read: Naegleria fowleri, 48 h, trophozoites, 48 h, minimum n = 3, read-out: N. fowleri EC50.
Setting [15] is: Naegleria fowleri, 48 h, trophozoites, 48 h, minimum n = 3, read-out: N. fowleri pEC50 ± SE (converted).
The mark [16] stands for this setting: trophozoites, 48 h, minimum n = 3, read-out: N. fowleri EC50.
Setting [17] is: trophozoites, 48 h, minimum n = 3.

Where two headings read alike, the source gives them in different places.

For `C[C@@H]1[C@@H](C)[C@H](c2ccc(O)c(O)c2)O[C@H]1c1ccc(O)cc1` [Compound 7, 3-hydroxy-4-epi-larreatricin], the EC50 in experiment [1] (setting [7]), in experiment [2] (setting [8]) and in experiment [3] (setting [9]) was over 166 µM each time. Moreover, the “antiparasitic activity against the three pathogens (in words)” value (“antiparasitic activity” below) in experiment [4] was “no antiparasitic activity”.

On to `Cc1ncc([N+](=O)[O-])n1CCO` [Metronidazole, reference compound], for which the EC50 in experiment [1] (setting [10]) was 5 µM; in experiment [1] (setting [11]), 5.01 µM; in experiment [2] (setting [12]), 6.4 µM; in experiment [2] (setting [13]), 6.31 µM.

For `CCCCCCCCCCCCCCCCOP(=O)([O-])OCC[N+](C)(C)C` [Miltefosine, reference compound], the EC50 in experiment [3] (setting [14]) is 54.5 µM; in experiment [3] (setting [15]), 50.1 µM.

Consider `C[C@@H]1[C@H](C)[C@H](c2ccc(O)cc2)O[C@H]1c1ccc(O)c(O)c1` [Compound 8, (7R, 7’R)-7, 7’-bis(4’, 3,4-trihydroxyphenyl)-(8R, 8’S)-8, 8’-dimethyltetrahydrofuran], for which the EC50 in experiment [1] (setting [7]), in experiment [2] (setting [8]) and in experiment [3] (setting [9]) was over 166 µM throughout. In experiment [4], the “antiparasitic activity” value is listed as “no antiparasitic activity”.

On to `C[C@H](Cc1ccc(O)c(O)c1)[C@@H](C)Cc1ccc(O)c(O)c1` [Compound 1, nordihydroguairetic acid], for which the EC50 was 103 µM in experiment [1] (setting [10]); 100 µM in experiment [1] (setting [11]); 36 µM in experiment [2] (setting [12]); 39.8 µM in experiment [2] (setting [13]); 36 µM in experiment [3] (setting [14]); 39.8 µM in experiment [3] (setting [15]). For the same molecule, the EC50 in experiment [3] (setting [16]) came out at 37 µM; in experiment [5], 86 µM. In experiment [5], the “fold less toxic to human cells compared to N. fowleri” value stood at 2.4 fold. Besides, the “inhibition of cysteine protease activity” value in experiment [6] is listed as about 50%.

Take `C[C@H]1[C@H](c2ccc(O)cc2)c2cc(O)c(O)cc2C[C@H]1C` [Compound 3, Nor-3’-demethoxyisoguaiacin]: the EC50 in experiment [1] (setting [10]) is 94 µM; in experiment [1] (setting [11]), 100 µM; in experiment [2] (setting [12]), 49 µM; in experiment [2] (setting [13]), 50.1 µM; in experiment [3] (setting [14]), 73 µM; in experiment [3] (setting [15]), 79.4 µM.

In the case of `C[C@H]1[C@H](c2ccc(O)c(O)c2)c2cc(O)c(O)cc2C[C@H]1C` [Compound 6, 6,3'-Di-O-demethylisoguaiacin], the EC50 in experiment [1] (setting [10]) is 146 µM; in experiment [1] (setting [11]) it was 158 µM; in experiment [2] (setting [12]) it was 96 µM; in experiment [2] (setting [13]), 100 µM; in experiment [3] (setting [14]), 150 µM; in experiment [3] (setting [15]), 158 µM. In experiment [4], the “antiparasitic activity” value is recorded as “comparatively weak activity”.

In the case of `COc1cc(C[C@@H](C)[C@@H](C)Cc2ccc(O)c(O)c2)ccc1O` [Compound 2, 3’-O-methylnordihydroguairetic acid], the EC50 in experiment [1] (setting [10]) is 171 µM; in experiment [1] (setting [11]), 158 µM; in experiment [2] (setting [12]), 38 µM; in experiment [2] (setting [13]), 39.8 µM; in experiment [3] (setting [14]), 38 µM; in experiment [3] (setting [15]), 39.8 µM. For the same molecule, in experiment [5], the EC50 amounted to 59 µM. Besides, the “fold less toxic to human cells compared to N. fowleri” value in experiment [5] is recorded as 1.6 fold. In addition, in experiment [6], the “inhibition of cysteine protease activity” value is recorded as about 50%.

With `COc1cc2c(cc1O)C[C@@H](C)[C@@H](C)[C@@H]2c1ccc(O)cc1` [Compound 5, 3’-Demethoxyisoguaiacin], the EC50 was 236 µM in experiment [1] (setting [10]); 251 µM in experiment [1] (setting [11]); 188 µM in experiment [2] (setting [12]); 200 µM in experiment [2] (setting [13]); 155 µM in experiment [3] (setting [14]); 158 µM in experiment [3] (setting [15]). For the same molecule, the “loss of activity compared to 3, E. histolytica” value in experiment [1] (SAR comparison with compound 3) is reported as ~ 3 fold. Moreover, the “loss of activity compared to 3, G. lamblia” value in experiment [2] is on record as 4 fold. Besides, the “loss of activity compared to 3, N. fowleri” value in experiment [3] (SAR comparison with compound 3) was ~ 2 fold. Besides, the “antiparasitic activity” value in experiment [4] is on record as “comparatively weak activity”.

Consider “3-Methoxy-6, 7, 4’-trihydroxyflavonol [Compound 9]”, for which the EC50 was over 166 µM in experiment [1] (trophozoites, minimum n = 3, read-out: E. histolytica EC50); 153 µM in experiment [2] (trophozoites, 48 h, minimum n = 3, read-out: G. lamblia EC50); 235 µM in experiment [3] (setting [16]). Also, in experiment [2] (setting [17]), the “G. lamblia pEC50 ± SE” value is on record as 3.8 ± 0.02. The “N. fowleri pEC50 ± SE” value in experiment [3] (setting [17]) was 3.6 ± 0.02.

Take `COc1cc([C@@H]2c3cc(O)c(O)cc3C[C@@H](C)[C@H]2C)ccc1O` [Compound 4, Nor-isoguaicin]: the EC50 in experiment [1] (setting [10]) was 83 µM; in experiment [1] (setting [11]), 79.4 µM; in experiment [2] (setting [12]) it was 74 µM; in experiment [2] (setting [13]) it was 79.4 µM; in experiment [3] (setting [14]) it was 75 µM; in experiment [3] (setting [15]), 79.4 µM. Also, in experiment [4] (span over E. histolytica, N. fowleri, read-out: EC50 values against all three pathogens), the EC50 lay in the range of 74 to 83 µM. Moreover, the “loss of activity compared to 3, G. lamblia” value in experiment [2] was ~ 2 fold.
